Drawing on patent US20250313535A1, “ALPHA 4 BETA 7 INTEGRIN MODULATORS AND USES THEREOF” (DICE MOLECULES SV, INC., priority 2022, published 2025), this text covers IC50 for 39 compounds.

What is called IC50 is the point on the concentration scale where inhibition reaches its midpoint.

Read-outs that look alike come from different tables or passages of the source.

The target of one experiment is α4β7 integrin (Homo sapiens (Human), UniProt P13612+P26010). Kind of experiment: Integrin Adhesion Assay: Protocol 4 (MAdCAM-coated plate, RPMI-8866 cells with stable LOF mutation of the ITGB1 gene). The class given is cell-based. The essentials: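 RPMI-8866 cells with CRISPR/Cas9 knockout of ITGB1 (2×10^6/mL) were added to MAdCAM-coated wells with compound (1% DMSO) in HEPES/NaCl buffer with 1 mM MnCl2, 0.1 mM CaCl2 and 1% BSA, then incubated 1 h at 37 °C. After four washes, adherent cells were quantified by CellTiter-Glo luminescence. Percent inhibition versus DMSO and control compound was fitted to 4-parameter curves.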
α4β7 integrin, sequence (P13612 34-1032): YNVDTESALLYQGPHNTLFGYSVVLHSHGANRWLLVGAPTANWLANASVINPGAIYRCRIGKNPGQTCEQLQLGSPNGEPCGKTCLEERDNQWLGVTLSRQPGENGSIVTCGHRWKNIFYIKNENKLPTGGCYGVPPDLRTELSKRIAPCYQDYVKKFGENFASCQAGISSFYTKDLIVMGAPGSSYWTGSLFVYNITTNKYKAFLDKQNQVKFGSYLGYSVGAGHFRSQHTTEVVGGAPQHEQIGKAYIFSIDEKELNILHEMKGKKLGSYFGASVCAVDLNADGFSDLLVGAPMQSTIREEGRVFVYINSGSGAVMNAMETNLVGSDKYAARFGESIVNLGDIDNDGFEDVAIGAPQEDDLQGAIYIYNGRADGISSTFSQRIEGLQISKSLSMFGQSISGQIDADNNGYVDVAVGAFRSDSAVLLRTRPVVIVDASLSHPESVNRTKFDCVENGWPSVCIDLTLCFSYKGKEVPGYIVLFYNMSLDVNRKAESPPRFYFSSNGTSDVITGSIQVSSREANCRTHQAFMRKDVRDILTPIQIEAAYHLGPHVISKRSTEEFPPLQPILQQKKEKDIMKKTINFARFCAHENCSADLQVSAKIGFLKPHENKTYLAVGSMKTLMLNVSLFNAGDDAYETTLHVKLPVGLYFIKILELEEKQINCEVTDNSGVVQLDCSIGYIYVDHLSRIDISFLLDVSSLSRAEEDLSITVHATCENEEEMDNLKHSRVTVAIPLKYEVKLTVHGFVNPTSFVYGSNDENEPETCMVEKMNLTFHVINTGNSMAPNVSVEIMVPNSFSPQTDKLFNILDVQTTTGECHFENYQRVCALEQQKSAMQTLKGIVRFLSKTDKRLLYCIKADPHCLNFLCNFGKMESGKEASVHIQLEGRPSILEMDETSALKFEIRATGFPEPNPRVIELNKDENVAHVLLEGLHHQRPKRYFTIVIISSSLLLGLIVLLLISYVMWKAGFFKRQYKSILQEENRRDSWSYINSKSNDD
α4β7 integrin, sequence (P26010 20-798): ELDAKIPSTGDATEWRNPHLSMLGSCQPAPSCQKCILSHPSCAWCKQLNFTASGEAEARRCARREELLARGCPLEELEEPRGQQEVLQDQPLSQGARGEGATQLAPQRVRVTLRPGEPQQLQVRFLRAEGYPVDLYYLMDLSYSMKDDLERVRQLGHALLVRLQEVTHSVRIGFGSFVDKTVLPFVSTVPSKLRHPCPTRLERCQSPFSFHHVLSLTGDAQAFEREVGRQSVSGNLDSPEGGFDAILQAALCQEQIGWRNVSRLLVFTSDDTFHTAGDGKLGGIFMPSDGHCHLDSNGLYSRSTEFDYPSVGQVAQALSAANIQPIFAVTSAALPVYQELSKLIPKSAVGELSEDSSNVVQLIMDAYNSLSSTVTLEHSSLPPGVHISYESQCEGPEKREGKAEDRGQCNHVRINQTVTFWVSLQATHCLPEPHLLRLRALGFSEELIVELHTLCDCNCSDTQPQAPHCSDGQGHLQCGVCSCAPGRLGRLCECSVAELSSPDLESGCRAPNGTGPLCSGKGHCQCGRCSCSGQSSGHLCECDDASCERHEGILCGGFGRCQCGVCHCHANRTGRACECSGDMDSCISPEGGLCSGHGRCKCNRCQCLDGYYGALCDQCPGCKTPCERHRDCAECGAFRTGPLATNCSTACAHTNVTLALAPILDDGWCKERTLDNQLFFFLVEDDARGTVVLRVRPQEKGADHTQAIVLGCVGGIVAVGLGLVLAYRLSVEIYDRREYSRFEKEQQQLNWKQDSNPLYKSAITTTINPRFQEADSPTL

Another experiment addresses α4β1 integrin (Homo sapiens (Human), UniProt P05556+P13612). The experiment can be described thus: Integrin Adhesion Assay: Protocol 5 (VCAM-coated plate, RPMI-8866 cells with stable LOF mutation of the ITGB7 gene). The class given is cell-based. Put shortly:
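RPMI-8866 B cells with CRISPR/Cas9 ITGB7 knockout (clonal, verified by flow cytometry) adhered to VCAM-coated wells for 1 h at 37° C in HEPES/NaCl buffer with 1 mM MnCl2, 0.1 mM CaCl2, 1% BSA, 1% DMSO. Bound cells quantified by CellTiter-Glo luminescence after washing; % inhibition versus DMSO and control, 4-parameter fit.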

Setting [1] is: Protocol 4, RPMI-8866 cells with LOF mutation of ITGB1, MAdCAM, read-out: Mean IC50 α4β7 KO.
The mark [2] stands for this setting: Protocol 5, RPMI-8866 cells with LOF mutation of ITGB7, VCAM, read-out: Mean IC50 α4β1 KO.
Setting [3] is: RPMI-8866 cells with stable LOF mutation of the ITGB1 gene, read-out: Mean IC50 α4β7 KO^a.
Setting [4] is: RPMI-8866 cells with stable LOF mutation of the ITGB7 gene, read-out: Mean IC50 α4β1 KO^b.

α4β1 integrin, sequence (P13612 34-1032): as the sequence (P13612 34-1032) above
α4β1 integrin, sequence (P05556 21-798): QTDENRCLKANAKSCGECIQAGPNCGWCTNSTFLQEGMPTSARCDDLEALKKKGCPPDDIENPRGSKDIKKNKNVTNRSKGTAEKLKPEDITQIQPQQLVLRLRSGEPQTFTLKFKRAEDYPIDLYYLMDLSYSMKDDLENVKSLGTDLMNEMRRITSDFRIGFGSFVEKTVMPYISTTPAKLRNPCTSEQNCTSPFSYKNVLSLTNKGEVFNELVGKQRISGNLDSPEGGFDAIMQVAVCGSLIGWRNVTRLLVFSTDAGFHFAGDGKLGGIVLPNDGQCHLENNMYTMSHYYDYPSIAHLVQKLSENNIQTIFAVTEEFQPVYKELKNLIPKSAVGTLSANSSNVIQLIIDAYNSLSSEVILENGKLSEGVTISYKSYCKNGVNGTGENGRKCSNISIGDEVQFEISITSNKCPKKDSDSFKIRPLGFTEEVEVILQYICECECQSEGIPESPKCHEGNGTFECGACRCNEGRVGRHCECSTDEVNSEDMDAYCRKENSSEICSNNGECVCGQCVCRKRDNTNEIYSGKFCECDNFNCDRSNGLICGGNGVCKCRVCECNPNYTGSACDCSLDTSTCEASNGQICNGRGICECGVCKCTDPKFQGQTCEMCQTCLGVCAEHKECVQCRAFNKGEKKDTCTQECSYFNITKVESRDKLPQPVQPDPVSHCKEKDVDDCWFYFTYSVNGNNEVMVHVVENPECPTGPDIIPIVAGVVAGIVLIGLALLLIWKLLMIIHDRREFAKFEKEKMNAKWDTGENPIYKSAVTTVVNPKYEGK

`O=C(O)[C@H](Cc1cccc2c(-c3cccc4cc(CN5CCCCC5)ncc34)cccc12)NC(=O)C1(C(F)(F)F)CCN(CC(F)(F)F)CC1` [Compound 991]: the figures for the half-inhibitory concentration (IC50) at α4β7 integrin (setting [1]) and at α4β1 integrin (setting [2]) were 100 to 1000 nM and over 1000 nM, respectively.
Take `COc1ccc(CN(C)C)c(OC)c1-c1cccc2c(C[C@H](NC(=O)c3c(Cl)cccc3Cl)C(=O)O)cccc12` [Compound 612]: the IC50 was under 10 nM at α4β7 integrin (setting [3]) and 100 to 1000 nM at α4β1 integrin (setting [4]).
Regarding `COc1cccc(CCN2CCC(F)CC2)c1-c1cccc2c(C[C@H](NC(=O)C3(C(F)(F)F)CCN(CC(F)(F)F)CC3)C(=O)O)cccc12` [Compound 968], the IC50 was under 10 nM on α4β7 integrin (setting [1]) and 100 to 1000 nM at α4β1 integrin (setting [2]).
For `COc1ccc(CN2CCCC(C)C2)c(OC)c1-c1cccc2c(C[C@H](NC(=O)C3(C(F)(F)F)CCN(CC(F)(F)F)CC3)C(=O)O)cccc12` (stereo partly drawn) [Compound 790] the same measures were under 10 nM and 100 to 1000 nM.
With `Cn1c(=O)c(-c2cccc3c(C[C@H](NC(=O)C4(C)CC5CCC(C4)N5CC(F)(F)F)C(=O)O)cccc23)c(C(F)(F)F)c2ccccc21` (stereo partly drawn) [Compound 481], the figures for the IC50 on α4β7 integrin (setting [3]) and at α4β1 integrin (setting [4]) were 10 to 100 nM and 100 to 1000 nM, respectively.
As for `Cc1cccc(F)c1C(=O)N[C@@H](Cc1cccc2c(-c3c(C(F)(F)F)c4cc(CCN5CCCC5)ccc4n(C)c3=O)cccc12)C(=O)O` [Compound 713], the IC50 on α4β7 integrin (setting [1]) was under 10 nM; at α4β1 integrin (setting [2]), 100 to 1000 nM.
For `COc1ccc(CN2CC[C@@H](F)C2)cc1-c1cccc2c(C[C@H](NC(=O)C3(C(F)(F)F)CCN(CC(F)F)CC3)C(=O)O)cccc12` [Compound 944] the same measures were under 10 nM and 100 to 1000 nM.
For `COc1cc(CN2CCCCC2)c2cccnc2c1-c1cccc2c(C[C@H](NC(=O)C3(C(F)(F)F)CCN(CC(F)(F)F)CC3)C(=O)O)cccc12` [Compound 728] the same measures were under 10 nM and 100 to 1000 nM.
On to `Cc1cccc(F)c1C(=O)N[C@@H](Cc1cccc2c(-c3c(C(F)(F)F)c4cc(CCCN(C)C)ccc4n(C)c3=O)cccc12)C(=O)O` [Compound 1053], for which the IC50 at α4β7 integrin (setting [1]) was under 10 nM; at α4β1 integrin (setting [2]), 100 to 1000 nM.
For `O=C(O)[C@H](Cc1cccc2c(-c3ncc(CN4CCC[C@@H](F)C4)cc3C3CC3)cccc12)NC(=O)C1(C(F)(F)F)CCN(CC(F)(F)F)CC1` [Compound 949] the same measures were under 10 nM and over 1000 nM.
As for `Cc1cccc(F)c1C(=O)N[C@@H](Cc1cccc2c(-c3c(C(F)(F)F)c4cc(CCN5CC(F)C5)ccc4n(C)c3=O)cccc12)C(=O)O` [Compound 517], the figures for the half-maximal inhibitory concentration (IC50) at α4β7 integrin (setting [3]) and at α4β1 integrin (setting [4]) were under 10 nM and over 1000 nM, respectively.
For `COc1ccc2ccncc2c1-c1cccc2c(C[C@H](NC(=O)C3(C(F)(F)F)CCN(CC(F)(F)F)CC3)C(=O)O)cccc12` [Compound 523] the same measures were under 10 nM and 100 to 1000 nM.
In the case of `CN(C)Cc1ccc2c(c1)c(C(F)(F)F)c(-c1cccc3c(C[C@H](NC(=O)c4c(F)cccc4CN4CCC(F)(F)CC4)C(=O)O)cccc13)c(=O)n2C` [Compound 701], the IC50 at α4β7 integrin (setting [1]) was 10 to 100 nM; at α4β1 integrin (setting [2]), over 1000 nM.
On to `CC1(C(=O)N[C@@H](Cc2cccc3c(-c4ncc(CN5CCCCC5)c5ccccc45)cccc23)C(=O)O)CCN(CC(F)(F)F)CC1` [Compound 576], for which the figures for the concentration for half-maximal inhibition (IC50) on α4β7 integrin (setting [3]) and on α4β1 integrin (setting [4]) were under 10 nM and over 1000 nM, respectively.
For `O=C(O)[C@H](Cc1cccc2c(-c3nccc4ccc(CCCN5CCCCC5)cc34)cccc12)NC(=O)C1(C(F)(F)F)CCN([C@H]2COCC2(F)F)CC1` [Compound 482] the same measures were under 10 nM and 100 to 1000 nM.
In the case of `COc1cc2ncccc2c(C)c1-c1cccc2c(C[C@H](NC(=O)C3(C(F)(F)F)CCN(CC(F)(F)F)CC3)C(=O)O)cccc12` [Compound 738], the figures for the IC50 at α4β7 integrin (setting [1]) and on α4β1 integrin (setting [2]) were 10 to 100 nM and over 1000 nM, respectively.
The corresponding values for `COc1cc(C(F)(F)F)cc(CCN2CCCCC2)c1-c1cccc2c(C[C@H](NC(=O)C3(C(F)(F)F)CCN(CC(F)(F)F)CC3)C(=O)O)cccc12` [Compound 741] are 10 to 100 nM and over 1000 nM.
Turning to `Cc1cccc(F)c1C(=O)N[C@@H](Cc1cccc2c(-c3c(C(F)(F)F)c4cc(CN(C)C)ccc4n(C)c3=O)cccc12)C(=O)O` [Compound 451], the IC50 on α4β7 integrin (setting [3]) was under 10 nM; on α4β1 integrin (setting [4]), 100 to 1000 nM.
On to `O=C(O)[C@H](Cc1cccc2c(-c3ncccc3CN3CCCCC3)cccc12)NC(=O)C1(C(F)(F)F)CCN(CC(F)(F)F)CC1` [Compound 793], for which the half-maximal inhibitory concentration (IC50) was 10 to 100 nM at α4β7 integrin (setting [1]) and over 1000 nM on α4β1 integrin (setting [2]).
On to `Cn1c(=O)c(-c2cccc3c(C[C@H](NC(=O)C4(C(F)(F)F)CCN(C5COC(C(F)(F)F)C5)CC4)C(=O)O)cccc23)c(C(F)(F)F)c2ccccc21` (stereo partly drawn) [Compound 507], for which the IC50 was 100 to 1000 nM on α4β7 integrin (setting [3]) and over 1000 nM on α4β1 integrin (setting [4]).
`O=C(O)[C@H](Cc1cccc2c(-c3ncc(CN4CCC4)c4ccccc34)cccc12)NC(=O)C1(C(F)(F)F)CCN(CC(F)(F)F)CC1` [Compound 919]: the figures for the concentration for half-maximal inhibition (IC50) on α4β7 integrin (setting [1]) and on α4β1 integrin (setting [2]) were under 10 nM and over 1000 nM, respectively.
For `O=C(O)[C@H](Cc1cccc2c(-c3cccc4c3OCCO4)cccc12)NC(=O)C1(C(F)(F)F)CCN(CC(F)(F)F)CC1` [Compound 766] the same measures were 10 to 100 nM and over 1000 nM.
For `Cc1cc(CN2CCC(C)(C)CC2)cnc1-c1cccc2c(C[C@H](NC(=O)C3(C(F)(F)F)CCN(CC(F)F)CC3)C(=O)O)cccc12` [Compound 902] the same measures were under 10 nM and over 1000 nM.
The corresponding values for `O=C(O)[C@H](Cc1cccc2c(-c3ncc(CCN4CCC[C@@H](F)C4)c4ccccc34)cccc12)NC(=O)C1(C(F)(F)F)CCN(CC(F)(F)F)CC1` [Compound 977] are under 10 nM and over 1000 nM.
Regarding `COc1cccc(CN2CCC(F)CC2)c1-c1cccc2c(C[C@H](NC(=O)c3c(C)cccc3F)C(=O)O)cccc12` [Compound 1024], the half-inhibitory concentration (IC50) was 10 to 100 nM on α4β7 integrin (setting [1]) and over 1000 nM at α4β1 integrin (setting [2]).
For `COc1cccc(CCN2CCC[C@H](F)C2)c1-c1cccc2c(C[C@H](NC(=O)C3(C(F)(F)F)CCN(CC(F)(F)F)CC3)C(=O)O)cccc12` [Compound 964] the same measures were 10 to 100 nM and over 1000 nM.
For the compound `COc1ccc(CN(C)C)c(OC)c1-c1cccc2c(C[C@H](NC(=O)c3c(C)cc(C4CC(F)(F)C4)cc3F)C(=O)O)cccc12` [Compound 602], the IC50 was under 10 nM at α4β7 integrin (setting [3]) and over 1000 nM at α4β1 integrin (setting [4]).
As to `COc1ccc(CN2CCCC(F)(F)CC2)c(OC)c1-c1cccc2c(C[C@H](NC(=O)c3c(C)cccc3F)C(=O)O)cccc12` [Compound 653], the values for the concentration for half-maximal inhibition (IC50) at α4β7 integrin (setting [3]) and on α4β1 integrin (setting [4]) were under 10 nM and 100 to 1000 nM, respectively.
For `Cn1c(=O)c(-c2cccc3c(C[C@H](NC(=O)C4(C(F)(F)F)CCNCC4)C(=O)O)cccc23)c(C(F)(F)F)c2ccccc21` [Compound 492] the same measures were 10 to 100 nM and over 1000 nM.
In the case of `Cn1c(=O)c(-c2cccc3c(C[C@H](NC(=O)C4(C)CC5(CN(CC(F)(F)F)C5)C4)C(=O)O)cccc23)c(C(F)(F)F)c2ccccc21` [Compound 521], the concentration for half-maximal inhibition (IC50) was 100 to 1000 nM at α4β7 integrin (setting [3]) and over 1000 nM at α4β1 integrin (setting [4]).
As for `Cn1c(=O)c(-c2cccc3c(C[C@H](NC(=O)C4(C(F)(F)F)CCN(CC(C)(F)F)CC4)C(=O)O)cccc23)c(C(F)(F)F)c2ccccc21` [Compound 534], the values for the IC50 at α4β7 integrin (setting [3]) and at α4β1 integrin (setting [4]) were 10 to 100 nM and 100 to 1000 nM, respectively.
For the compound `COc1cc(CN2CCCCC2)cc(OC)c1-c1cccc2c(C[C@H](NC(=O)c3c(C)cccc3F)C(=O)O)cccc12` [Compound 1019], the IC50 is under 10 nM at α4β7 integrin (setting [1]) and 100 to 1000 nM at α4β1 integrin (setting [2]).
The corresponding values for `O=C(O)[C@H](Cc1cccc2c(-c3ncc(CN4CCCC(F)(F)CC4)c4ccccc34)cccc12)NC(=O)C1(C(F)(F)F)CCN(CC(F)F)CC1` [Compound 915] are under 10 nM and over 1000 nM.
The corresponding values for `COC(=O)[C@H](Cc1cccc2c(-c3c(OC)ccc(CN4CCC(C)C(F)(F)CC4)c3OC)cccc12)NC(=O)C1(C(F)(F)F)CCN(CC(F)(F)F)CC1` (stereo partly drawn) [Compound 779] are under 10 nM and 100 to 1000 nM.
For the compound `COc1cc(CN(C)C)cc(OC)c1-c1cccc2c(C[C@H](NC(=O)C3(C(F)(F)F)CCN(CC(F)(F)F)CC3)C(=O)O)cccc12` [Compound 478], the 50% inhibitory concentration (IC50) at α4β7 integrin (setting [3]) is under 10 nM; on α4β1 integrin (setting [4]), over 1000 nM.
For `COc1ccc(CN2CCCCC2)cc1-c1cccc2c(C[C@H](NC(=O)C3(C(F)(F)F)CCN(CC(F)(F)F)CC3)C(=O)O)cccc12` [Compound 575], the half-maximal inhibitory concentration (IC50) is under 10 nM at α4β7 integrin (setting [3]) and 100 to 1000 nM on α4β1 integrin (setting [4]).
As to `CC(C)(C)C1CCN(CCc2cnc(-c3cccc4c(C[C@H](NC(=O)C5(C(F)(F)F)CCN(CC(F)(F)F)CC5)C(=O)O)cccc34)c3ccccc23)CC1` [Compound 981], the figures for the IC50 on α4β7 integrin (setting [1]) and at α4β1 integrin (setting [2]) were under 10 nM and over 1000 nM, respectively.
With `Cn1c(=O)c(-c2cccc3c(C[C@H](NC(=O)C4(C(F)(F)F)CCN(C5(C(F)(F)F)CC5)CC4)C(=O)O)cccc23)c(C(F)(F)F)c2ccccc21` [Compound 486], the IC50 on α4β7 integrin (setting [3]) and at α4β1 integrin (setting [4]) was over 1000 nM each time.
As to `COc1cc(C(F)(F)F)cc(CN2CCCCC2)c1-c1cccc2c(C[C@H](NC(=O)C3(C(F)(F)F)CCN(CC(F)(F)F)CC3)C(=O)O)cccc12` [Compound 830], the IC50 on α4β7 integrin (setting [1]) was 10 to 100 nM; at α4β1 integrin (setting [2]) it was over 1000 nM.
